Changes are numbered by the printed parent chain. Where “and” joins values, the source holds several entries; their conditions need not be identical. Equal entries are not always repeated.
Legend:
M2R L129^34.51A mutant = target: T1, M2R L129^34.51A mutant (Homo sapiens, UniProt P08172, L129A); experiment: NanoBiT-GoA dissociation assay, L129A mutant M2R
T1 sequence (P08172 1-466 L129A): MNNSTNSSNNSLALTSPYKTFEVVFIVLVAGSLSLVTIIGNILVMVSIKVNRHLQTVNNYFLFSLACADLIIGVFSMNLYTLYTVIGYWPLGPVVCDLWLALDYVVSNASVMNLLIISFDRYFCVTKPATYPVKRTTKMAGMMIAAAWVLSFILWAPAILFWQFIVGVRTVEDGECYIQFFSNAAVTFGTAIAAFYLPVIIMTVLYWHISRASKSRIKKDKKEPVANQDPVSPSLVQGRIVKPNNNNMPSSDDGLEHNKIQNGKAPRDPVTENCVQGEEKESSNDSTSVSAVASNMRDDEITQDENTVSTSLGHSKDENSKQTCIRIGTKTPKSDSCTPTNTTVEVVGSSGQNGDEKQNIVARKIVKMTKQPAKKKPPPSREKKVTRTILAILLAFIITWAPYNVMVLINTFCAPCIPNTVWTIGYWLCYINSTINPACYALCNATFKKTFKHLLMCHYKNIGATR

human, wild-type M2R = target: T2, human, wild-type M2R (Homo sapiens, UniProt P08172); experiment: NanoBiT-G-protein (GoA) dissociation assay, wild-type M2R, HEK293A cells; type: cell-based; settings: for NanoBiT-GoA dissociation signal, Mean (Veh = 1.000): n = 4
T2 construct: expressed in transfected cells; host or cells: HEK293A
T2 sequence (P08172 1-466): T1 sequence (P08172 1-466 L129A) with A129L

Mock = experiment: NanoBiT-GoA dissociation assay, Mock-transfected cells (control); type: cell-based
M2R and GoA = target: T3, M2R and GoA (Homo sapiens, UniProt P08172); experiment: GTPase-Glo assay (GTP turnover) with purified M2R and GoA; type: biochemical; settings: for Residual GTP (%): 90 min, normalized to GoA alone; for GTP-turnover, Fig. 1c (GTPase-Glo luminescence): 100 μM ACh or 10 μM Ixo, M2R-GoA
T3 construct: FLAG (N); 8xHis (C); made in house; host or cells: Sf9 insect cells (receptor)
Method: The receptors for GTPase-Glo^TM assay were expressed and purified as described above and frozen at −80 °C before use. […] The GTPase reaction was incubated at room temperature (22–25 °C) for different times (15–90 min). […] After incubation, 5 μL reconstituted 1xGTPase-Glo^TM Reagent (Promega) was added to the completed GTPase reaction, mixed briefly and incubated with shaking for 30 min at room temperature (22–25 °C) to convert the remaining GTP into ATP. Then 10 μL Detection Reagent (Promega) was added to the system and incubated for 5-10 min at room temperature (22–25 °C) to convert the ATP into luminescent signals. Luminescence intensity was quantified using a Multimode Plate Reader (PerkinElmer) luminescence counter.

M2R = target: T4, M2R (Homo sapiens, UniProt P08172); experiment: biochemical; type: binding; parameters: expressed in transfected cells
T4 sequence (P08172 1-466): T1 sequence (P08172 1-466 L129A) with A129L
Method: Purified M2R receptor was reconstituted into high-density lipoprotein (HDL) particles constituting apolipoprotein A1(APOA1) and mixture of POPG: POPC lipids with 3:2 (mol:mol)ratio as previously described. […] Membranes or HDL particles were separated from excess [^3H]-NMS by Whatman GF/B filters using a Brandel 48-well harvester. The bound radioligand were read on a liquid scintillation counter (MicroBeta Jet, PerkinElmer). Data were analyzed by GraphPad Prism 9.2.0.

T3 sequence (P59768 2-68): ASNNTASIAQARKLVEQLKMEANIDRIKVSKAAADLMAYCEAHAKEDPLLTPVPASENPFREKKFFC
T3 sequence (P09471 2-354, further chain): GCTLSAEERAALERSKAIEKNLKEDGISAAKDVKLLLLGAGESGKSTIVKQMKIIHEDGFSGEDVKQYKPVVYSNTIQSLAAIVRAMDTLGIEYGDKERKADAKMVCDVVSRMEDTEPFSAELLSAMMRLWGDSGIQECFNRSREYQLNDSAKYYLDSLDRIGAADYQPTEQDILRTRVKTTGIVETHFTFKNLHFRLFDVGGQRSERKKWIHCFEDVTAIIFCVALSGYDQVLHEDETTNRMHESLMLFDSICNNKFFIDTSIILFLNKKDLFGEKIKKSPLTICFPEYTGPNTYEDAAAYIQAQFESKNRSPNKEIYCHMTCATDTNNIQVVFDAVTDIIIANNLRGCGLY
T3 sequence (P08172 whole entry): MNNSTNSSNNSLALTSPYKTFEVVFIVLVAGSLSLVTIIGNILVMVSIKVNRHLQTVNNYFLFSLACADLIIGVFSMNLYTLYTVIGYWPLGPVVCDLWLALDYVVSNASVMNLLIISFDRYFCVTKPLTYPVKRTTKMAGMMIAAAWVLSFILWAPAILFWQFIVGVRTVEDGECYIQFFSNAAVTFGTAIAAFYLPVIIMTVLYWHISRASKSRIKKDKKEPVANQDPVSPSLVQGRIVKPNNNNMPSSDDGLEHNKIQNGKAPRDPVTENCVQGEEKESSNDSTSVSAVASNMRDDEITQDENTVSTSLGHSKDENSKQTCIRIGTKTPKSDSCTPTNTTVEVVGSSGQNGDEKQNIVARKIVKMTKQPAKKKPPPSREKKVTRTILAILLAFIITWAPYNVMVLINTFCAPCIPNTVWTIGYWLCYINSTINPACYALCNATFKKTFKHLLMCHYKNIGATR
T3 sequence (P62873 whole entry, further chain): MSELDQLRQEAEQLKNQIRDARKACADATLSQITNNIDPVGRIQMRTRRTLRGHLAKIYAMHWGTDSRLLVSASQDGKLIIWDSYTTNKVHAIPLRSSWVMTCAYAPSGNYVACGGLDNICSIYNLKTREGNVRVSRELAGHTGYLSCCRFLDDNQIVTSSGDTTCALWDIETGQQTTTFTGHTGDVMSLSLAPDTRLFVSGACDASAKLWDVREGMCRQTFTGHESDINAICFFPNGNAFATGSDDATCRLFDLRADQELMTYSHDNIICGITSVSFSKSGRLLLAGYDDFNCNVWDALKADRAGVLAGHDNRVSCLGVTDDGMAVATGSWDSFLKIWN

CC(=O)OCC[N+](C)(C)C [ACh, acetylcholine] was tested, and the “∆pEC50” value (M2R L129^34.51A mutant) was -0.530 and -0.558 and -0.440, the “NanoBiT-GoA dissociation signal, Mean (Veh = 1.000)” value (from here on “NanoBiT-GoA dissociation signal”) (M2R L129^34.51A mutant; ACh Log [M] -4, n = 3) was 0.350 and the “NanoBiT-GoA dissociation signal” value (M2R L129^34.51A mutant; ACh Log [M] -5, n = 3) was 0.368. For the same compound, the “NanoBiT-GoA dissociation signal” value (M2R L129^34.51A mutant; ACh Log [M] -6, n = 3) was 0.470, the “NanoBiT-GoA dissociation signal” value (M2R L129^34.51A mutant; ACh Log [M] -8, n = 3) was 0.926 and the “NanoBiT-GoA dissociation signal” value (M2R L129^34.51A mutant; ACh Log [M] -9, n = 3) was 0.991. For the same compound, the “NanoBiT-GoA dissociation signal” value (M2R L129^34.51A mutant; ACh Log [M] -10, n = 3) was 0.994, the “∆pEC50” value (human, wild-type M2R; WT (1:1), reference) was 0.000 and the “NanoBiT-GoA dissociation signal” value (human, wild-type M2R; WT (1:1), ACh Log [M] -4) was 0.337. For the same compound, the “NanoBiT-GoA dissociation signal” value (human, wild-type M2R; WT (1:1), ACh Log [M] -5) was 0.351, the “NanoBiT-GoA dissociation signal” value (human, wild-type M2R; WT (1:1), ACh Log [M] -6) was 0.394 and the “NanoBiT-GoA dissociation signal” value (human, wild-type M2R; WT (1:1), ACh Log [M] -7) was 0.558. For the same compound, the “NanoBiT-GoA dissociation signal” value (human, wild-type M2R; WT (1:1), ACh Log [M] -8) was 0.840, the “NanoBiT-GoA dissociation signal” value (human, wild-type M2R; WT (1:1), ACh Log [M] -9) was 0.978 and the “∆pEC50” value (human, wild-type M2R; WT (1:2)) was -0.277 and -0.205 and -0.364 and -0.275. For the same compound, the “NanoBiT-GoA dissociation signal” value (human, wild-type M2R; WT (1:2), ACh Log [M] -4) was 0.345, the “NanoBiT-GoA dissociation signal” value (human, wild-type M2R; WT (1:2), ACh Log [M] -5) was 0.355 and the “NanoBiT-GoA dissociation signal” value (human, wild-type M2R; WT (1:2), ACh Log [M] -6) was 0.427. The “NanoBiT-GoA dissociation signal” value (human, wild-type M2R; WT (1:2), ACh Log [M] -7) was 0.636, the “NanoBiT-GoA dissociation signal” value (human, wild-type M2R; WT (1:2), ACh Log [M] -8) was 0.898 and the “NanoBiT-GoA dissociation signal” value (human, wild-type M2R; WT (1:2), ACh Log [M] -9) was 0.988. For the same compound, the “NanoBiT-GoA dissociation signal” value (Mock; ACh Log [M] -4, n = 3) was 0.999, the “NanoBiT-GoA dissociation signal” value (Mock; ACh Log [M] -5, n = 3) was 0.997 and the “NanoBiT-GoA dissociation signal” value (Mock; ACh Log [M] -6, n = 3) was 0.997. For the same compound, the “NanoBiT-GoA dissociation signal” value (Mock; ACh Log [M] -7, n = 3) was 0.998, the “NanoBiT-GoA dissociation signal” value (Mock; ACh Log [M] -8, n = 3) was 1.007 and the “NanoBiT-GoA dissociation signal” value (Mock; ACh Log [M] -9, n = 3) was 1.008. The “NanoBiT-GoA dissociation signal” value (Mock; ACh Log [M] -10, n = 3) was 1.011, the “Residual GTP (%)” value (M2R and GoA; +DMSO) was 45.3131% and 35.9349% and 31.3573% and 30.3217% and the “Residual GTP (%)” value (M2R and GoA; +LY2119620 (100 μM)) was 63.4937% and 52.5673% and 44.2408% and 50.614% and 40.1818%. The “GTP turnover rate and efficacy” value (M2R and GoA; agonist-bound M2R) was “much lower GTP turnover rate and efficacy than Ixo-bound M2R”, the “GTP-turnover, Fig. 1c (GTPase-Glo luminescence)” value (from here on “GTP-turnover, Fig. 1c”) (M2R and GoA; time 15 min) was 580068 and 653066 and 555333 and 703107 and the “GTP-turnover, Fig. 1c” value (M2R and GoA; time 30 min) was 338018 and 388059 and 371258 and 437553. The “GTP-turnover, Fig. 1c” value (M2R and GoA; time 45 min) was 365372 and 350617 and 319511 and 370440, the “GTP-turnover, Fig. 1c” value (M2R and GoA; time 60 min) was 469821 and 332109 and 488525 and 361230 and the “GTP-turnover, Fig. 1c” value (M2R and GoA; time 90 min) was 354237 and 250414 and 339305 and 252170. The “increase of affinity on addition of GoA” value (M2R; M2R in HDL particles) was ~ 65 fold, the “competition curve data, Fig. 1b ([3H]-NMS binding)” value (“competition curve data, Fig. 1b” below) (M2R; log[M] -4, without GoA) was 5.782 and 5.65 and 7.077 and the “competition curve data, Fig. 1b” value (M2R; log[M] -5, +GoA) was 8.6818 and 10.1951 and 7.089. The “competition curve data, Fig. 1b” value (M2R; log[M] -5, without GoA) was 30.6813 and 33.2587 and 33.4266, the “competition curve data, Fig. 1b” value (M2R; log[M] -6, +GoA) was 19.1734 and 19.6734 and 19.2354 and the “competition curve data, Fig. 1b” value (M2R; log[M] -6, without GoA) was 75.6364 and 71.4046. For the same compound, the “competition curve data, Fig. 1b” value (M2R; log[M] -7, +GoA) was 35.8423 and 48.5862 and 43.4886, the “competition curve data, Fig. 1b” value (M2R; log[M] -7, without GoA) was 93.5585 and 94.8412 and 97.6703 and the “competition curve data, Fig. 1b” value (M2R; log[M] -8, +GoA) was 63.401 and 72.72 and 79.9283. The “competition curve data, Fig. 1b” value (M2R; log[M] -8, without GoA) was 87.5165 and 90.6813 and 92.0839, the “competition curve data, Fig. 1b” value (M2R; log[M] -9, +GoA) was 85.6233 and 86.2605 and 91.0793 and the “competition curve data, Fig. 1b” value (M2R; log[M] -9, without GoA) was 98.6534 and 93.3786 and 102.25. For the same compound, the “competition curve data, Fig. 1b” value (M2R; log[M] -10, +GoA) was 98.2875 and 107.686 and 94.0263, the “competition curve data, Fig. 1b” value (M2R; log[M] -10, without GoA) was 99.5165 and 100.667 and 99.8162 and the “binding affinity lower than Ixo” value (M2R; purified M2R reconstituted in HDL particles) was ~ 90 fold.
